Test results published in US20080070846A1, “TREATING ACUTE EXACERBATIONS OF ASTHMA USING A KETOLIDE” (Aventis Pharmaceuticals Inc, priority 2004, published 2008).

Key:
[1] = test system: children with an acute exacerbation of asthma; settings: oral prednisone, after 7 days; pediatric, mean age 8.0 years; cited from earlier work
[2] = test system: adult patients with acute asthma; settings: after seven to ten days of oral prednisone; cited from earlier work
[3] = test system: adults with mild asthma exacerbations; settings: after 16 days of tapering oral prednisone; from 73% at onset of treatment; cited from earlier work
[4] = test system: adults following an acute asthma exacerbation; settings: oral prednisone, over seven to ten days; cited from earlier work
asthmatic patients = settings: cited from earlier work
[5] = test system: patients with acute exacerbations of asthma; assay: Asthma diary symptom scores in double-blind, randomized, placebo-controlled study; format: in vivo, human
Protocol: (§1) Patients are centrally randomized (1:1) using computer-generated codes to receive blinded treatment with either oral telithromycin 800 mg once daily (two 400 mg capsules) or placebo (two capsules identical to those containing active treatment) for ten days using a proprietary Interactive Voice Recognition System to balance the treatment assignments within each study center. The first clinic visit (Visit 1), occurring within 24 hours of initial presentation is considered to be the study baseline. At baseline, patients are randomized to telithromycin or placebo. Telephone contact is made at 24-72 hours post-randomization to review concomitant medications taken and adverse events. Visit 2 is at the end of treatment (Days 11-14), Visit 3 is a post-treatment visit (Day 28 [±3 days]), and Visit 4 is the final visit (Day 42 [±3 days]). At each visit, patients undergo respiratory examinations, pulmonary function tests, health outcome assessments, and have a review of adverse events. Vital signs and concomitant medications are also recorded. Spontaneous or induced sputum samples nasopharyngeal swabs, and serum for serology for atypical pathogens are collected at Visits 1 and 3. Patients receiving at least one dose of study treatment and having one primary efficacy endpoint value are included in the intention to treat (ITT) population.
(§2) Asthma symptoms are measured using a modified version of a previously published diary card symptom score in which patients rate the frequency and severity of symptoms on a 7-point Likert scale. [see Santanello N. C., Barber B. L., Reiss T. F, Friedman B. S., Juniper E. F., Zhang J., Measurement Characteristics of Two Asthma Symptom Diary Scales for Use in Clinical Trials. Eur. Respir. J. 1997; 10:646-651]. Daily patient diaries are also used to record asthma symptoms, study treatment dosing, albuterol use, and other concomitant medications. Patient's home PEF values are also recorded in triplicate twice daily.
(§3) Efficacy endpoints are analyzed using an analysis of covariance (ANCOVA) model using factors for treatment, study center (investigator), treatment-by-center interaction, and baseline as covariates. Longitudinal analyses are based on the average over the 6-week study period. The treatment group means and the between-group differences are estimated using the ANCOVA model and between-group tests are used to compare telithromycin with placebo. The primary efficacy assessment time point is Visit 2 (end of treatment; Days 11-14).
Improvements in asthma symptoms assessed by the patients during the ten days of study treatment are analyzed using analysis of variance (ANOVA)/ANCOVA. Time to 50% reduction of asthma symptoms is summarized for treatment groups using a Kaplan-Meier procedure.

[6] = test system: patients with acute exacerbations of asthma; assay: In-clinic pulmonary function tests (PEF, FEV1, FVC, FEF25-75%); format: in vivo, human
Protocol: as §1
PEF in liter/min, FEV1 in liters, FVC in liters, and FEF25-75% in liters/sec are recorded at clinic visits and are performed according to American Thoracic Society (ATS) standards. [see American Thoracic Society. Standardization of Spirometry. Am. J. Respir. Crit. Care Med. 1995; 152: 1107-1136].
as §3
In the models used, treatment effect is estimated while adjusting for the factor of center and for baseline values as covariates. This adjusted model accounts for the difference in the number of patients enrolled at each center. All mean data for efficacy outcomes are presented as least square (LS) means as they result from this adjusted model.

[7] = test system: patients with acute exacerbations of asthma; assay: Morning home PEF recorded on diary cards; format: in vivo, human; settings: patient-recorded; placebo 66.8 L/min
Protocol: as §2

[8] = test system: patients with acute exacerbations of asthma; assay: Tolerability and safety assessment (adverse-event recording); format: in vivo, human
Protocol: Clinical safety is assessed in all patients by adverse-event recording and standard monitoring. Patients who receive at least one dose of […] and at least one safety assessment during treatment are considered evaluable for safety. All spontaneously reported adverse events and those identified by investigator observation are recorded and evaluated in terms of severity and causality.

C. pneumoniae = settings: mice with acute C. pneumoniae infection; cited from earlier work

## C[C@]12C=CC(=O)C=C1CC[C@@H]1[C@@H]2C(=O)C[C@@]2(C)[C@H]1CC[C@]2(O)C(=O)CO [prednisone]
[1]
  mean increase in FEF25-75%: 0.41 L/s
  mean increase in FEV1: 0.37 L
  mean increase in FVC: 0.45 L
  mean increase in PEF: 78 L/min
[2]
  PEF improvement: 46 L/min
[3]
  PEF % predicted after treatment: 85%
[4]
  FEV1 increase, measured after bronchodilator use: 0.55 L
  PEF increase, measured after bronchodilator use: 77 L/min

## CC[C@H]1OC(=O)[C@H](C)[C@@H](O[C@H]2C[C@@](C)(OC)[C@@H](O)[C@H](C)O2)[C@H](C)[C@@H](O[C@@H]2O[C@H](C)C[C@H](N(C)C)[C@H]2O)[C@](C)(OC)C[C@@H](C)C(=O)[C@H](C)[C@@H](O)[C@]1(C)O [clarithromycin]
Asthmatic patients
  severity of bronchial hyperresponsiveness: reduce the severity of bronchial hyperresponsiveness

## CC[C@H]1OC(=O)[C@H](C)C(=O)[C@H](C)[C@@H](O[C@@H]2O[C@H](C)C[C@H](N(C)C)[C@H]2O)[C@](C)(OC)C[C@@H](C)C(=O)[C@H](C)[C@H]2N(CCCCn3cnc(-c4cccnc4)c3)C(=O)O[C@]12C [telithromycin]
[5]; Kaplan-Meier, placebo 8 days, P=0.031
  median time to a 50% reduction in symptoms: 5 days
[5]; entire 6-week observation period, 800 mg once daily for ten days
  mean change in symptom score from baseline over the study period: −51%
[5]; oral 800 mg once daily for ten days, added to usual care, ITT N=126
  mean percent reduction in symptom severity from baseline to the end of treatment: −51%
[5]; placebo 8%, P=0.006
  proportion of patients with symptom-free days during the treatment period: 16%
[5]; telithromycin vs placebo, 6-week period, 95% CI −24.75, −0.89%, P=0.035
  mean difference between treatments in change in symptom score over the study period: −13%
[5]; telithromycin vs placebo, 95% CI −36.64, −7.90%, P=0.003
  mean difference between treatments in percent reduction in symptom severity, baseline to end of treatment: −22%
[6]; 800 mg/day for ten days, N=126
  Mean change from baseline to end of treatment, FEF25-75%: 0.85 L/s
  Mean change from baseline to end of treatment, FVC: 0.58 L
[6]; 800 mg/day for ten days, N=126, LS mean, Visit 2
  Mean change from baseline to end of treatment, FEV1: 0.63 L
[6]; 800 mg/day for ten days, N=126, in-clinic
  Mean change from baseline to end of treatment, PEF: 115.8 L/min
[6]; C. pneumoniae and/or M. pneumoniae infection at baseline, 61 telithromycin patients
  mean improvement in FEV1, subgroup with infection at baseline: 0.67 L
[6]; no evidence of C. pneumoniae/M. pneumoniae infection, 44 telithromycin patients
  mean improvement in FEV1, subgroup without evidence of infection: 0.65 L
[6]; telithromycin vs placebo, 95% CI 0.11, 0.47 L, P=0.002
  difference between treatments in FEV1 improvement, subgroup with infection at baseline: 0.29 L
[6]; telithromycin vs placebo, 95% CI −0.17, 0.52 L, P=0.309
  difference between treatments in FEV1 improvement, subgroup without evidence of infection: 0.18 L
[6]; telithromycin vs placebo, P=0.001
  Difference between treatments in mean change, FEV1: 0.29 L
[6]; telithromycin vs placebo, P=0.004
  Difference between treatments in mean change, FEF25-75%: 0.40 L/s
[6]; telithromycin vs placebo, P=0.006
  Difference between treatments in mean change, FVC: 0.27 L
[6]; telithromycin vs placebo, P=0.036
  Difference between treatments in mean change, PEF: 26.9 L/min
[7]
  improvement in morning home PEF from baseline over the treatment period (mean): 78.3 L/min
[8]; 800 mg once daily for ten days
  tolerability: well tolerated
[8]; 132 patients evaluable for safety
  TEAEs considered possibly related to treatment, % of patients: 20.5%
[8]; 132 patients evaluable for safety, placebo 39.7%
  frequency of TEAEs: 38.6%
[8]; placebo 3.8%
  diarrhea possibly related to treatment: 9.8%
C. pneumoniae
  culture and PCR positivity in the lungs: reduce culture and PCR positivity
